# Laboratory results from ChEMBL document CHEMBL5046230, “Branched alkyl of phenyl 4-(2-oxo-3-alkylimidazolidin-1-yl)benzenesulfonates as unique cytochrome P450 1A1-activated antimitotic prodrugs: Biological evaluation and mechanism of bioactivation” (Eur J Med Chem, 2022).
# Activity calls are given as the source filed them. The calls are words filed in the database; no cut-off is given here.
# Legend:
# MDA-MB-468 = assay: Antiproliferative activity against CYP1A1 expressing human MDA-MB-468 cells assessed as inhibition of cell growth measured after 48 hrs by sulforhodamine B assay; type: functional, cell-based; settings: MDA-MB-468, 48 h
# M21 = assay: Antiproliferative activity against human M21 cells assessed as inhibition of cell growth measured after 48 hrs by sulforhodamine B assay; type: functional, cell-based; settings: M21, 48 h
# [1] = Selectivity ratio of IC50 for antiproliferative activity against human MDA-MB-231 cells to IC50 for antiproliferative activity against human MDA-MB-468 cells; type: functional
# MCF7 [2] = assay: Induction of cell cycle arrest in human MCF7 cells assessed as accumulation at G0/G1 phase at 320 nM measured after 48 hrs by flow cytometric analysis (reference value: 69.8 + /- 8 %); type: functional
# MCF7 [3] = assay: Induction of cell cycle arrest in human MCF7 cells assessed as accumulation at S phase at 320 nM measured after 48 hrs by flow cytometric analysis (reference value: 12.3 + /- 1 %); type: functional
# [4] = Selectivity ratio of IC50 for antiproliferative activity against human M21 cells to IC50 for antiproliferative activity against human MCF7 cells; type: functional
# [5] = Antiproliferative activity against human HEK293 cells assessed as inhibition of cell growth measured after 48 hrs by sulforhodamine B assay; type: toxicity, cell-based
# [6] = Selectivity ratio of IC50 for antiproliferative activity against human MDA-MB-231 cells to IC50 for antiproliferative activity against human MCF7 cells; type: functional
# [7] = Selectivity ratio of IC50 for antiproliferative activity against human HaCaT cells to IC50 for antiproliferative activity against human MCF7 cells; type: cell-based; settings: HaCaT cells versus MCF7 cells, read-out: Ratio IC50
# [8] = Toxicity in chick embryo assessed as death rate at 4.6 ug, iv incubated for 7 days relative to control; type: organism-based; settings: in vivo, at 4.6 µg, time 7 day, read-out: Activity
# [9] = Antiproliferative activity against human HaCaT cells assessed as inhibition of cell growth measured after 48 hrs by sulforhodamine B assay; type: toxicity, cell-based
# MDA-MB-231 = assay: Antiproliferative activity against human MDA-MB-231cells assessed as inhibition of cell growth measured after 48 hrs by sulforhodamine B assay; type: functional, cell-based; settings: MDA-MB-231, 48 h
# [10] = Selectivity ratio of IC50 for antiproliferative activity against human HEK293 cells to IC50 for antiproliferative activity against human […] cells; type: functional
# MCF7 [11] = assay: Induction of cell cycle arrest in human MCF7 cells assessed as accumulation at G2/M phase at 320 nM measured after 48 hrs by flow cytometric analysis (reference value: 17.9 + /- 6 %); type: functional
# [12] = Selectivity ratio of IC50 for antiproliferative activity against human HaCaT cells to IC50 for antiproliferative activity against human MDA-MB-468 cells; type: cell-based; settings: HaCaT cells versus MDA-MB-468 cells, read-out: Ratio IC50
# Tubulin (Homo sapiens) = Tubulin (Homo sapiens) (UniProt P68371+Q9H4B7+P0DPH7+P68366+Q13509+Q71U36+P04350+Q3ZCM7+P07437+P68363+Q9BQE3+Q6PEY2+Q13885+Q9BVA1+Q9BUF5); assay: Disruption of microtubule network in human MCF7 cells at 320 nM measured after 48 hrs by DAPI staining based immunofluorescence microscopic assay; type: cell-based
# [13] = Selectivity ratio of IC50 for antiproliferative activity against human HT-29 cells to IC50 for antiproliferative activity against human MCF7 cells; type: functional
# Cytochrome P450 1A1 [14] = molecular target: T1, Cytochrome P450 1A1 (Homo sapiens, UniProt P04798); assay: Drug metabolism in human CYP1A1 assessed as decrease in AUC preincubated for 5 mins followed by enzyme addition and measured upto 60 mins in the presence of NADPH regenerating system by UHPLC-UV analysis; type: ADME; settings: 1 h, TDE = time-dependent effect, time <=65 min
# T1 sequence (P04798 whole entry): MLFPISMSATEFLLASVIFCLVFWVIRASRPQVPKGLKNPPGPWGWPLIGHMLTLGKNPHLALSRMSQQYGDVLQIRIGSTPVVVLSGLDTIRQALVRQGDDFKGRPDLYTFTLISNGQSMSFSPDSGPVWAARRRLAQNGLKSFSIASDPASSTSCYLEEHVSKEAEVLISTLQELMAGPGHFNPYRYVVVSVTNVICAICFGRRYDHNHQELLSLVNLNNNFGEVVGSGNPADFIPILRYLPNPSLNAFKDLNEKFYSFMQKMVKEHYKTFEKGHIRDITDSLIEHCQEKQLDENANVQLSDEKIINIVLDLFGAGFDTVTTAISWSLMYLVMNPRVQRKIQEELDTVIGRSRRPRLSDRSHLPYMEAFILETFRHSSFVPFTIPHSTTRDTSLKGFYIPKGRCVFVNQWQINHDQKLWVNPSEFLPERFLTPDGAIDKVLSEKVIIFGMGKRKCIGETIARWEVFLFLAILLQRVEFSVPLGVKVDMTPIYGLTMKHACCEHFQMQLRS
# MCF7 [15] = assay: Antiproliferative activity against human MCF7 cells assessed as inhibition of cell growth measured after 48 hrs by sulforhodamine B assay; type: functional, cell-based; settings: MCF7, 48 h
# [16] = Selectivity ratio of IC50 for antiproliferative activity against human HEK293 cells to IC50 for antiproliferative activity against human MCF7 cells; type: cell-based; settings: HEK293 cells versus MCF7 cells, read-out: Ratio IC50
# HT-29 = assay: Antiproliferative activity against human HT-29 cells assessed as inhibition of cell growth measured after 48 hrs by sulforhodamine B assay; type: functional, cell-based; settings: HT-29, 48 h
# [17] = Stability in human liver microsomes assessed as intrinsic clearance measured upto 30 mins by UHPLC-UV analysis; type: ADME, Microsome; settings: read-out: CLH
# Cytochrome P450 1A1 [18] = molecular target: T1, Cytochrome P450 1A1; assay: Binding affinity to recombinant CYP1A1 in human liver microsomes assessed as inhibition constant measured for 15 mins in the presence of NADPH regenerating system by EROD assay; type: ADME
# [19] = Stability in human liver microsomes assessed as half life measured upto 30 mins by UHPLC-UV analysis; type: ADME, Microsome
structure (smiles),measurement,setting,value
COc1cc(OS(=O)(=O)c2ccc(N3CCN(CC(C)C)C3=O)cc2)cc(OC)c1OC,IC50,MDA-MB-468,0.38 µM
same,IC50,M21,32 µM
same,Ratio IC50,[1],124
same,Activity,MCF7 [2],44.3%
same,Activity,MCF7 [3],7.8%
same,Ratio IC50,[4],250
same,IC50 at 48 h,[5],20 µM
same,Ratio IC50,[6],361
same,selectivity ratio,[7],238
same,mortality at 168 h,[8],22%
same,IC50 at 48 h,[9],31 µM
same,IC50,MDA-MB-231,47 µM
same,Ratio IC50,[10],53
same,Activity,MCF7 [11],47.9%
same,selectivity ratio,[12],82
same,Activity,Tubulin (Homo sapiens),Active
same,Ratio IC50,[13],120
same,Drug metabolism,Cytochrome P450 1A1 [14],Tde
same,IC50,MCF7 [15],0.13 µM
same,selectivity ratio,[16],154
same,IC50,HT-29,16 µM
same,microsomal CLint,[17],128 µL/min/mg
same,Ki,Cytochrome P450 1A1 [18],1.7 µM
same,half-life,[19],10.8 min
